Assay [1] concerns the target T1, AAK1 (Homo sapiens, UniProt Q2M2I8).
T1 construct: NP_055726.2
The experiment in a line: HEK281 cell-based assay (CBA). The note with it: HEK293F cells transfected with full length human AAK1 and AP2M1; phospho-mu2 Western blot; 3 hours incubation. As to the method:
HEK293F cells were cultured in media containing DMEM (Gibco, cat. #11965), 10% FBS (SAFC Biosciences, cat. #12103C), 1× GPS (glutamine, penicillin and streptomycin). On day one, cells were plated on a 10 cm dish so that they are ˜80% confluent at time of transfection. Roughly 12 million cells were in a 10 cm dish at time of transfection. On day two, each dish was transfected with 48 ug DNA and 144 ul Lipofectamine 2000 (Invitrogen, cat. #11668-019). The DNA was comprised of a mixture (per 10 cm dish) containing 3 ug AAK1/HA/pIRES (full length human, NCBI accession no. NP_055726.2), 45 μg Flag/AP2MI/pcDNA (full length human), and 1.5 ml OPTI-MEM. The Lipofectamine 2000 is made up of a mixture (per 10 cm dish) containing 144 μl Lipofectamine 2000 and 1.5 ml OPTI-MEM. Each mixture was transferred to individual 15 ml tubes and incubated at RT for 5 minutes, and then the two mixes were combined and incubated at RT for 20 minutes.
Growth media was then aspirated from each 10 cm plate and replaced with 10 ml of DMEM+10% FBS (no GPS). Finally, 3 ml DNA/Lipofectamine mix was added to each 10 cm dish and mix gently followed by incubate of plate overnight at 37° C. and 5% CO2.
On day three, compounds were diluted in 100% DMSO at 1000× final concentration, followed by 3-fold serial dilutions for a total of 5 concentrations tested. Four compounds were tested per 10 cm dish. One ul of each compound dilution was then pipetted into a deep-well, 96-well plate, followed by addition of 500 μl DMEM+0.5% FBS into each well for a 2× final concentration of each compound. Cells were resuspended in a 10 cm dish by simple pipetting (HEK293 cells come off the plate that easy at this point) and then transferred to a 50 ml conical tube and pelleted by centrifugation at 1000 rpm for 5 min. Cell pellets were then resuspended in 2.75 ml DMEM+0.5% FBS per 10 cm dish and 100 μl of cell suspension transferred into each well of 96-well TC plate. Finally, 100 μl of 2× compound diluted in DMEM+0.5% FBS was then added into wells containing cell suspension for a 1× final concentration. Plates were then incubated at 37° C. and 5% CO2 for 3 hours followed by transferring of cell suspensions from each well into 12-tube PCR strips. The PCR strips were spun in a tip rack at 1000 rpm for 5 minutes to pellet cells and media was then removed by pipetting without disturbing the cell pellet.
To prepare for Western Blot analysis, cell pellets were resuspend in 40 ul 1× LDS-PAGE sample buffer (Invitrogen, cat.# NP0008)+2× Halt phophatase and protease inhibitor cocktail (Thermo Scientific, cat. #1861284), followed by sonicating each with microtip sonicator set at 5 for 8-10 seconds. Five ul of 10× NuPage Sample Reducing Agent (with 50 mM DTT) was to each sample followed by heat denaturing at 70 C for 10 min on PCR machine. A total of 10 μl per sample was loaded into each lane of a 4-20% Tris-Glycine Criterion 26-well gel (Biorad, cat. #345-0034) for the phospho-mu2 blot and 10 μl per lane in a 4-12% Bis-Tris (+MES buffer) NuPAGE 26-well gel (Invitrogen, cat.# WG1403BX10) for the mu2 blot. For controls, 2 ng of phospho-mu2 or 20 ng mu2/Flag proteins were loaded in the last well of each gel. After SDS-PAGE, samples on each gel were transferred to PVDF membrane using an iBlot and membranes were blocked for one hour in TBST+5% milk, followed by wash 3× for 5-10 min with TBST. Criterion gels were probed with rabbit anti-phospho-mu2 (1:5000; a rabbit polyclonal antibody produced by New England Peptide and affinity purified at Lexicon) in TBST+5% BSA, whereas, NuPAGE gels were probed with mouse anti-Flag (1:500; Sigma, cat.# F1804) in TBST+5% milk, and these primary antibodies were incubated overnight at 4° C. on a rocker.
Background: A western blot detects proteins with antibodies after separation by electrophoresis.

Assay [2] has as its target T1, AAK1. The experiment in a line: P81 filter plate assay. The format is biochemical. The conditions noted are these: full-length human AAK1, Mu2 substrate, 33P-ATP. The gist of the method: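 Full-length human AAK1 (0.2 nM, 2×) was pre-incubated 10 min at RT with compounds (top concentration 96 μM in the dilution plate), then reacted 1 h at RT with full-length human Mu2 (0.2 μM, 2×), cold ATP (2 μM, 2×) and ³³P-ATP. Reactions were stopped with phosphoric acid and captured on P81 filters for scintillation counting.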

The term pIC50 denotes the IC50 on a negative log10 scale, so that one unit is a factor of ten.

pIC50: −log10 of the molar value. Bounds are passed on as bounds.

T1 sequence (Q2M2I8 1-863 isoform Q2M2I8-2): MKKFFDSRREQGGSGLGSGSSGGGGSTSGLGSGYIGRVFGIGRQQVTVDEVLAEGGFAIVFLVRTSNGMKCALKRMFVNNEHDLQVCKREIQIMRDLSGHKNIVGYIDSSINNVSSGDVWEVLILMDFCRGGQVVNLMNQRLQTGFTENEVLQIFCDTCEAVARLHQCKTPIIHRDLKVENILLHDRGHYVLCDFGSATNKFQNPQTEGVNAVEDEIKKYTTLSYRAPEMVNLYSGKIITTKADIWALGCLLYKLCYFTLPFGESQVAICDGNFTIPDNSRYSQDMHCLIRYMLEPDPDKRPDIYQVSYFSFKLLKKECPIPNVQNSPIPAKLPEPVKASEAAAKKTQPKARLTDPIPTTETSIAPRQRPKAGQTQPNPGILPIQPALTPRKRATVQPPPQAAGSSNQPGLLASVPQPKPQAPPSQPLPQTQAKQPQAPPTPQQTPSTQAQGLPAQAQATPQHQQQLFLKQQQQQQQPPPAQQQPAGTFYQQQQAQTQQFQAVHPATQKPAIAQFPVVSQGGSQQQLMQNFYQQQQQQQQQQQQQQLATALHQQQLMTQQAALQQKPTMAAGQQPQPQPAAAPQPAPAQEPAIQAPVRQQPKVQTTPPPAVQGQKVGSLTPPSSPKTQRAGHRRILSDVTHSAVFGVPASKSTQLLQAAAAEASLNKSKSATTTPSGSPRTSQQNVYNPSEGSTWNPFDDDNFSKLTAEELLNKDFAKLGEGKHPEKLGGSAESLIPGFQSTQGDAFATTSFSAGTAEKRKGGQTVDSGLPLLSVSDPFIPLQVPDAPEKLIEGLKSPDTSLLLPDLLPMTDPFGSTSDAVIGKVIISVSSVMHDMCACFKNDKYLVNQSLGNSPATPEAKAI

In the case of `COC[C@H](C)OC(=O)N1CCN(c2ccn3ncc(-c4cccnc4OC)c3n2)CC1` [(S)-1-methoxypropan-2-yl 4-(3-(2-methoxypyridin-3-yl)pyrazolo[1,5-a]pyrimidin-5-yl)piperazine-1-carboxylate], the pIC50 against AAK1 [1] and on AAK1 [2] was no less than 8.00 each time. Regarding `COc1ncccc1-c1cnn2ccc(N3CCN(C(=O)[C@@H]4CCCN4)CC3)nc12` [(S)-(4-(3-(2-methoxypyridin-3-yl)pyrazolo[1,5-a]pyrimidin-5-yl)piperazin-1-yl)(pyrrolidin-2-yl)methanone], the results for the negative logarithm of the IC50 (pIC50) against AAK1 [1] and against AAK1 [2] were no less than 7.00 and no less than 8.00, respectively. The like results for `COCCOC(=O)N1CCN(c2ccn3ncc(-c4ccc(C)nc4OC)c3n2)CC1` [2-methoxyethyl 4-(3-(2-methoxy-6-methylpyridin-3-yl)pyrazolo[1,5-a]pyrimidin-5-yl)piperazine-1-carboxylate] were, in that order, no less than 7.00 and no less than 8.00. Regarding `COc1ncccc1-c1cnn2ccc(N3CCN(C(=O)[C@@H](N)C(C)(C)C)CC3)nc12` [(S)-2-amino-1-(4-(3-(2-methoxypyridin-3-yl)pyrazolo[1,5-a]pyrimidin-5-yl)piperazin-1-yl)-3,3-dimethylbutan-1-one], the negative-log IC50 (pIC50) on AAK1 [1] and at AAK1 [2] was no less than 8.00 each time. With `COc1ccncc1-c1cnn2ccc(NC[C@@H]3CCCN3C(=O)OC(C)(C)C)nc12` [(S)-tert-butyl 2-(((3-(4-methoxypyridin-3-yl)pyrazolo[1,5-a]pyrimidin-5-yl)amino)methyl)pyrrolidine-1-carboxylate], the pIC50 against AAK1 [1] and against AAK1 [2] was no less than 8.00 throughout.

For `COc1ccccc1-c1cnn2ccc(N3CCN(C(=O)[C@@H](N)C(C)(C)C)CC3)nc12` [(S)-2-amino-1-(4-(3-(2-methoxyphenyl)pyrazolo[1,5-a]pyrimidin-5-yl)piperazin-1-yl)-3,3-dimethylbutan-1-one], the pIC50 at AAK1 [1] and at AAK1 [2] was no less than 8.00 each time. For the compound `COC[C@H](N)C(=O)N1CCN(c2ccn3ncc(-c4cccnc4OC)c3n2)CC1` [(S)-2-amino-3-methoxy-1-(4-(3-(2-methoxypyridin-3-yl)pyrazolo[1,5-a]pyrimidin-5-yl)piperazin-1-yl)propan-1-one], the pIC50 against AAK1 [1] and on AAK1 [2] was no less than 8.00 each time. With `COc1nc(C)ccc1-c1cnn2ccc(N3CCN(C(=O)O[C@@H]4CCOC4)CC3)nc12` [(R)-tetrahydrofuran-3-yl 4-(3-(2-methoxy-6-methylpyridin-3-yl)pyrazolo[1,5-a]pyrimidin-5-yl)piperazine-1-carboxylate], the negative logarithm of the IC50 (pIC50) was no less than 7.00 on AAK1 [1] and no less than 8.00 against AAK1 [2]. The corresponding values for `COc1ncccc1-c1cnn2ccc(N(C)C[C@@H]3CCCN3C(=O)OC(C)C)nc12` [(S)-isopropyl 2-(((3-(2-methoxypyridin-3-yl)pyrazolo[1,5-a]pyrimidin-5-yl)(methyl)amino)methyl)pyrrolidine-1-carboxylate] are no less than 8.00 and no less than 8.00.

Take `COc1ncccc1-c1cnn2ccc(N(C)CCCN(C)C(=O)OC(C)C)nc12` [isopropyl (3-((3-(2-methoxypyridin-3-yl)pyrazolo[1,5-a]pyrimidin-5-yl)(methyl)amino)propyl)(methyl)carbamate]: the pIC50 at AAK1 [1] was no less than 7.00; against AAK1 [2], no less than 8.00. On to `COc1nc(C)ccc1-c1cnn2ccc(N3CCN(C(=O)OC(C)(C)C)CC3)nc12` [tert-butyl 4-(3-(2-methoxy-6-methylpyridin-3-yl)pyrazolo[1,5-a]pyrimidin-5-yl)piperazine-1-carboxylate], for which the pIC50 at AAK1 [1] and on AAK1 [2] was no less than 8.00 in each case. For `CC(C)[C@H](N)C(=O)N1CCN(c2ccn3ncc(-c4cc(F)ccc4F)c3n2)CC1` [(S)-2-amino-1-(4-(3-(2,5-difluorophenyl)pyrazolo[1,5-a]pyrimidin-5-yl)piperazin-1-yl)-3-methylbutan-1-one], the pIC50 at AAK1 [1] and on AAK1 [2] was no less than 8.00 in each case.

`CCCOC(=O)N1CCN(c2ccn3ncc(-c4cc(F)cnc4OC)c3n2)CC1` [propyl 4-(3-(5-fluoro-2-methoxypyridin-3-yl)pyrazolo[1,5-a]pyrimidin-5-yl)piperazine-1-carboxylate]: the pIC50 is no less than 7.00 at AAK1 [1] and no less than 8.00 against AAK1 [2]. The like results for `COc1nc(C)ccc1-c1cnn2ccc(N(C)CCCN(C)C(=O)OC(C)C)nc12` [isopropyl (3-((3-(2-methoxy-6-methylpyridin-3-yl)pyrazolo[1,5-a]pyrimidin-5-yl)(methyl)amino)propyl)(methyl)carbamate] were, in that order, no less than 7.00 and no less than 8.00. The corresponding values for `COc1cc(C)c(F)cc1-c1cnn2ccc(N3CCN(C(=O)OC(C)C)CC3)nc12` [isopropyl 4-(3-(5-fluoro-2-methoxy-4-methylphenyl)pyrazolo[1,5-a]pyrimidin-5-yl)piperazine-1-carboxylate] are no less than 8.00 and no less than 8.00. For `COc1ncccc1-c1cnn2ccc(N3CC[C@H](N(C)C(=O)OC(C)C)C3)nc12` [(S)-isopropyl (1-(3-(2-methoxypyridin-3-yl)pyrazolo[1,5-a]pyrimidin-5-yl)pyrrolidin-3-yl)(methyl)carbamate], the figures for the pIC50 at AAK1 [1] and against AAK1 [2] were no less than 7.00 and no less than 8.00, respectively. For the compound `COc1cc(C)ccc1-c1cnn2ccc(N3CCN(C(=O)OC(C)C)CC3)nc12` [isopropyl 4-(3-(2-methoxy-4-methylphenyl)pyrazolo[1,5-a]pyrimidin-5-yl)piperazine-1-carboxylate], the pIC50 is no less than 7.00 on AAK1 [1] and no less than 8.00 against AAK1 [2]. The corresponding values for `COCC(C)(C)OC(=O)N1CCN(c2ccn3ncc(-c4cccnc4OC)c3n2)CC1` [1-methoxy-2-methylpropan-2-yl 4-(3-(2-methoxypyridin-3-yl)pyrazolo[1,5-a]pyrimidin-5-yl)piperazine-1-carboxylate] are no less than 6.00 and no less than 8.00. The like results for `CCCOC(=O)N1CCN(c2ccn3ncc(-c4ccc(C)nc4OC)c3n2)CC1` [propyl 4-(3-(2-methoxy-6-methylpyridin-3-yl)pyrazolo[1,5-a]pyrimidin-5-yl)piperazine-1-carboxylate] were, in that order, no less than 8.00 and no less than 8.00. For the compound `COc1ncccc1-c1cnn2ccc(N3CCN(C(=O)[C@@H](N)C(C)C)CC3)nc12` [(S)-2-amino-1-(4-(3-(2-methoxypyridin-3-yl)pyrazolo[1,5-a]pyrimidin-5-yl)piperazin-1-yl)-3-methylbutan-1-one], the pIC50 at AAK1 [1] and against AAK1 [2] was no less than 8.00 throughout. `CC(C)[C@H](N)C(=O)N1CCN(c2ccn3ncc(-c4ccc(F)cc4)c3n2)CC1` [(S)-2-amino-1-(4-(3-(4-fluorophenyl)pyrazolo[1,5-a]pyrimidin-5-yl)piperazin-1-yl)-3-methylbutan-1-one]: the pIC50 at AAK1 [1] and against AAK1 [2] was no less than 8.00 each time. Compound `CC(C)COC(=O)N(C)CCNc1ccn2ncc(-c3ccc(C(N)=O)cc3)c2n1` [isobutyl (2-((3-(4-carbamoylphenyl)pyrazolo[1,5-a]pyrimidin-5-yl)amino)ethyl)(methyl)carbamate] had a pIC50 at AAK1 [1] of no less than 8.00.
